System: Human peripheral blood mononuclear cells (PBMCs)
Experiment: Induced cytokine secretion by PBMCs exposed for 24 hours, ELISA
Assay type: cell-based
Conditions: 25 μg/mL, 24 hours, 300,000 PBMCs per well
Description: FIG. 10 is bar graph showing the induced secretion of IL-6 by PBMCs exposed to PolyIC, RNA248, DNA4, DNA10, PolyIC complexed with SEQ. ID NO. 4 (CAL2), RNA248 complexed with SEQ. ID NO. 4, DNA4 complexed with SEQ. ID NO. 4, DNA10 complexed with SEQ. ID NO. 4, DNA4 and RNA248 complexed with SEQ. ID NO. 4, Pam(2)CSK4-conjugated SEQ. ID NO. 4 complexed with DNA4 and SEQ. ID NO. 4 alone. Each well contained ˜300,000 fresh PBMCs in a total volume of 100 μL of RPMI medium. Solutions of SEQ. ID NO. 4, PolyIC, DNA4, DNA10, Pam(2)CSK4-conjugated SEQ. ID NO. 4 were all pre-mixed to concentrations of 50 ug/mL (for each peptide reagent) and then added to wells in volumes of 100 uL, such that each well contained a 200 uL volume of PBMCs and reagents. Wells were run in triplicate and the mean value is indicated.
A series of in vitro experiments was conducted to characterize the immune-stimulating properties of the MM and their sub-components. Human peripheral blood mononuclear cells (PBMCs) were exposed to a MM containing SEQ. ID NO. 4 and its individual molecular sub-components for 24 hours. For reference, the PBMCs were separately exposed to PolyIC. After this time, the induced secretion of following cytokines by PBMCs was measured: interleukin-6 (IL-6), interleukin-10 (IL-10), interleukin-12 (IL-12), interleukin-15 (IL-15), tumor necrosis factor alpha (TNF-alpha), interferon-alpha (IFN-alpha), and interferon-gamma (IFN-gamma). Experiments were conducted as follows. 150 mL of blood was supplied by a human volunteer and PBMCs were isolated by Ficoll-Paque gradient centrifugation immediately after venipuncture. PBMCs were incubated for 24 hours at 37° C./5% CO2 in 96-well plates, with 300,000 PBMCs per well in a 200 μL medium containing 49% RPMI-1640/49% PBS/1% L-glutamine/1% penicillin-streptomycin and the components in Table 3 at a concentration of 25 μg/mL. All cytokines were measured in triplicate.
After 24 hours, the supernatant from each well was isolated using centrifugation at 3000 g and immediately thereafter cytokines were measured using ELISA kits from Genway Biotech (San Diego, Calif.) and Origene (Rockville, Md.). Per ELISA kit instructions, 100 μL of supernatant was used for each readout. The results are provided in FIGS. 10-16, where the mean of each measurement is provided. (In no instance did the standard deviation exceed 30%.)

Substance | cytokine secretion overall (seven cytokines measured) | induced secretion of IFN-alpha | induced secretion of IL-12 | induced secretion of IL-15
5′-guuggugguugugugagcgu-3′ (GUUGGUGGUUGUGUGAGCGU; listed as RNA, chemistry not fully specified) [RNA248] | minimal cytokine secretion | – | – | –
RRHRKRRLSTCMLGTYTQDFNKFHTFPQTAI (Linker Sequence + synthetic peptide corresponding to calcitonin) [CAL2] | very minimal cytokine secretion | – | – | –
5′-TTCGGCGCGCGCGCGCGCGCGCCGTT-3′ (DNA, all phosphorothioate, methylation of C not given here) [DNA10] | minimal cytokine secretion | – | – | –
5′-TCGTCGGTTTCGGCGCGCGCCG-3′ (DNA, all phosphorothioate, methylation of C not given here) [DNA4] | minimal cytokine secretion | somewhat immunogenic | does not induce secretion of high amounts | does not induce secretion of high amounts

— patent publication US9839681B1, “Size tunable microbial mimetics for immunotherapy of cancer” (priority 2017, dated 2017)
